Results: publication PMC4942689, “Deciphering the function of the CNGB1b subunit in olfactory CNG channels” (Scientific Reports, 2016)
pEC50: −log10 of the molar value.

What was measured:
[1] = target: T1, CNGA2RE:A4RE:B1bRE (Rattus norvegicus, UniProt A0A8I5ZN27+Q00195+Q64359, R1106E/R430E/R538E); assay: Channel activation during confocal patch-clamp fluorometry; format: biochemical; settings: 10 μM fcGMP; all four binding sites disabled
T1 construct: expressed in transfected cells; host or cells: Xenopus laevis oocytes (cRNA injection), excised inside-out patches
T1 sequence (Q00195 whole entry R538E): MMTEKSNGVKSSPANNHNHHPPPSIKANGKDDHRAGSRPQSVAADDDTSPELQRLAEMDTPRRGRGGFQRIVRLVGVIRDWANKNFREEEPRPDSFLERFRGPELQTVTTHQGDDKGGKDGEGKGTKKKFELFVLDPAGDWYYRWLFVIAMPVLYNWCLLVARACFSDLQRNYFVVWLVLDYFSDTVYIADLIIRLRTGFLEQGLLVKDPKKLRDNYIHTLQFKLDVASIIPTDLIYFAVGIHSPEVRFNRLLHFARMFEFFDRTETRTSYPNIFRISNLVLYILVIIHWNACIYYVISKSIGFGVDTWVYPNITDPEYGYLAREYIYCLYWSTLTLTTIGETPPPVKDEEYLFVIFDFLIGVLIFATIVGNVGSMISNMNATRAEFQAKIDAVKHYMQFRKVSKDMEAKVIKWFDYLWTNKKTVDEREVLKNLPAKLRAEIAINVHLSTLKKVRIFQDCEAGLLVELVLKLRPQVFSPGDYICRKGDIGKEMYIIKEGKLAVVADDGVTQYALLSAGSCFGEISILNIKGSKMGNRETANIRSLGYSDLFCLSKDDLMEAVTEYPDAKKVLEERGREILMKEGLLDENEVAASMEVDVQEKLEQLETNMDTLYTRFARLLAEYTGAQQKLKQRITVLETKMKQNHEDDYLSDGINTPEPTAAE
T1 sequence (Q64359 whole entry R430E): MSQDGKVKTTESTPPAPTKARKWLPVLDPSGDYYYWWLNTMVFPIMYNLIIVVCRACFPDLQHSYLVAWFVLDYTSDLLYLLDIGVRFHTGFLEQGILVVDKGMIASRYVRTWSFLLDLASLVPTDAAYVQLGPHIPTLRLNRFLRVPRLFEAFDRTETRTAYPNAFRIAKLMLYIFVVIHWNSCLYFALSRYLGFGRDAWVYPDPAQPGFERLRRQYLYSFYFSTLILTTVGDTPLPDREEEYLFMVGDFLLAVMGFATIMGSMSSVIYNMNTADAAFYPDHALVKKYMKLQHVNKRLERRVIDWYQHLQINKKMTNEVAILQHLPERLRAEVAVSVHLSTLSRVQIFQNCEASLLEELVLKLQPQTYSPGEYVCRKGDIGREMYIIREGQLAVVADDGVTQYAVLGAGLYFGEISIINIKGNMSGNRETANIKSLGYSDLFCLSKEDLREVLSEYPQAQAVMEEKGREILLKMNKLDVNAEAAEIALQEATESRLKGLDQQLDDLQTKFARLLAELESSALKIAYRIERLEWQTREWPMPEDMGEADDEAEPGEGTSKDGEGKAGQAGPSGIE
T1 sequence (A0A8I5ZN27 1-858 isoform A0A8I5ZN27-2 R657E): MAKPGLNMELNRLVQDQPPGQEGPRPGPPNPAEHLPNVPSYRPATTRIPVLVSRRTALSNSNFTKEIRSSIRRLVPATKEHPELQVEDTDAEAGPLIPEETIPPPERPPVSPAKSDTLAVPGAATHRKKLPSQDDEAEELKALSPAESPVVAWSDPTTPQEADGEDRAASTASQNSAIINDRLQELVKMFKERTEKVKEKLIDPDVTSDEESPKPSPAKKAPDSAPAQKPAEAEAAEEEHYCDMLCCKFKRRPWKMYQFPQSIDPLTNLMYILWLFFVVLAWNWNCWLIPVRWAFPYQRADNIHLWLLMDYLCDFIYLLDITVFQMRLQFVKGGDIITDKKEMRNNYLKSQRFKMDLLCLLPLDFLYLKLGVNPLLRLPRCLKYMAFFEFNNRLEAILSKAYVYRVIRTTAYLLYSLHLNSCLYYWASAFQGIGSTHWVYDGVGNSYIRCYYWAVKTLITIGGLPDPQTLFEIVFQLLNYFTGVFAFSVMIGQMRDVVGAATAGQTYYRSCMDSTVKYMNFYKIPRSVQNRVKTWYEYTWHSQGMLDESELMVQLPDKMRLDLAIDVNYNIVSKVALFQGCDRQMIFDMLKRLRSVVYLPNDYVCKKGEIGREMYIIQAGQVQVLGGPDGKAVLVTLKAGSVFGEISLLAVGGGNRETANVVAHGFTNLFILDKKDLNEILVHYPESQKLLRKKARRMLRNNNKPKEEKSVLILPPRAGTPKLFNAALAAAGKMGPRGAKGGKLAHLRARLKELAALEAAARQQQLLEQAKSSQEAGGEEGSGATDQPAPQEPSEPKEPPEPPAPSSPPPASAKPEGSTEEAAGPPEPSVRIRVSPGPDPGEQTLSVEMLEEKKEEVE
Protocol: (§1) To verify the hypothesis that the CNGB1b subunit in CNGA2:A4:B1b channels binds cyclic nucleotides, we coexpressed CNGB1b with CNGA4RE and either CNGA2RE or CNGA2TM and measured ligand binding in the presence of 10 μM fcGMP. […] To verify the specificity of the binding to the CNGB1b subunit in these heterotetrameric channels, we coexpressed the CNGB1bRE subunit with CNGA2RE and CNGA4RE.
(§2) Figure 2 In a CNGA2:A4 background the CNGB1b subunit binds both fcGMP and fHcAMP and activates the channel. (a) Binding of fcGMP to the CNGB1b subunit evokes channel activation. Binding of fcGMP to CNGB1b was observed when coexpressed with either CNGA2RE:A4RE or CNGA2TM:A4RE (upper diagram). […] (b) Binding of fHcAMP to CNGB1b was observed when coexpressed with both CNGA2RE and CNGA4RE. When disabling the binding domain of CNGB1b, the fluorescence intensity was nearly abolished. Correspondingly, CNGA2RE:A4RE:B1b channels were activated by the ligand only when the CNGB1b binding site was available.
(§3) Patch-clamp experiments were performed using an Axopatch 200B amplifier (Molecular Devices LLC, CA, U.S.A.) in the inside-out configuration. The patch pipettes for recording of macroscopic currents were pulled from borosilicate glass tubing (outer diameter 2.0 mm, inner diameter 1.0 mm; Hilgenberg GmbH, Germany). The initial resistance was 0.7–1.3 MΩ. The patches were formed as pushed inside-out patches. […] Cyclic nucleotide concentration jumps were performed using a double-barreled glass pipette mounted on a piezo-driven device. Intracellular (bath) and extracellular (pipette) solutions contained (mM) 150 KCl, 1 EGTA, 5 Hepes, pH = 7.4 with KOH. […] Currents in the absence of the cyclic nucleotide were subtracted. All patches included in this study were first tested for channel expression in the presence of a saturating ligand concentration. Only patches with large current, i.e. a large number of channels, were included in our statistics. The currents were measured at +10 mV or, if mentioned, at +100 mV.
(§4) The ligand binding was measured in macropatches by patch-clamp fluorometry[41][42] combined with confocal microscopy. […] Recordings were performed with an LSM 510 or 710 confocal microscope (Zeiss, Jena, Germany) and were triggered by the ISO3 software (MFK, Niedernhausen, Germany). To distinguish between the fluorescence of the unbound ligands from that of the bound ligands, a second dye, DY647 (Dyomics, Jena, Germany), was added to the bath solution. The 543-nm and 633-nm lines of a He-Ne laser were used to excite fcAMP/fcGMP and DY647, respectively. The method of confocal patch-clamp fluorometry has been described in detail previously.

[2] = target: T2, CNGA2TM:A4RE:B1bRE (Rattus norvegicus, UniProt A0A8I5ZN27+Q00195+Q64359, R1106E/R430E/T539M); assay: as above; format: biochemical; settings: 10 μM fcGMP; all four binding sites disabled
T2 construct: expressed in transfected cells; host or cells: Xenopus laevis oocytes (cRNA injection), excised inside-out patches
T2 sequence (Q00195 whole entry T539M): as the sequence (Q00195 whole entry R538E) above, with E538R, T539M counted along it
T2 sequence (Q64359 whole entry R430E): as the sequence (Q64359 whole entry R430E) above
T2 sequence (A0A8I5ZN27 1-858 isoform A0A8I5ZN27-2 R657E): as the sequence (A0A8I5ZN27 1-858 isoform A0A8I5ZN27-2 R657E) above
Protocol: as §1, §2, §3, §4

[3] = target: T3, CNGA2TM:A4RE:B1b (Rattus norvegicus, UniProt A0A8I5ZN27+Q00195+Q64359, R430E/T539M); assay: as above; format: biochemical; settings: 10 μM fcGMP; normalized to current at 4 mM cGMP
T3 construct: expressed in transfected cells; host or cells: Xenopus laevis oocytes (cRNA injection), excised inside-out patches
T3 sequence (Q00195 whole entry T539M): as the sequence (Q00195 whole entry R538E) above, with E538R, T539M counted along it
T3 sequence (Q64359 whole entry R430E): as the sequence (Q64359 whole entry R430E) above
T3 sequence (A0A8I5ZN27 1-858 isoform A0A8I5ZN27-2, stated change not applied): as the sequence (A0A8I5ZN27 1-858 isoform A0A8I5ZN27-2 R657E) above, with E657R counted along it
Protocol: as §1, §2, §3, §4

[4] = target: T4, CNGA2TM:B1b (Rattus norvegicus, UniProt A0A8I5ZN27+Q00195, T539M); assay: Ligand binding, confocal patch-clamp fluorometry; parameters: key to Ligand binding to CNGB1b: +: ligand binding to the respective modulatory subunits was either observed or not; −: ligand binding to the respective modulatory subunits was either observed or not
T4 construct: expressed in transfected cells; host or cells: Xenopus laevis oocytes (cRNA injection), excised patches
T4 sequence (Q00195 whole entry T539M): as the sequence (Q00195 whole entry R538E) above, with E538R, T539M counted along it
T4 sequence (A0A8I5ZN27 1-858 isoform A0A8I5ZN27-2, stated change not applied): as the sequence (A0A8I5ZN27 1-858 isoform A0A8I5ZN27-2 R657E) above, with E657R counted along it
Excerpt: (§5) The channels to be studied were expressed in Xenopus oocytes. We first tested the subunit composition in our channels when coexpressing different combinations of subunits by single-channel recordings. For CNGA2:A4, CNGA2:B1b and CNGA2:A4:B1b channels we exclusively obtained the specific and easily distinguishable single-channel activity reported earlier when injecting respective amounts of RNA[7][13]. We therefore assumed that the channels formed had always the expected subunit composition. The specific binding of cyclic nucleotides and the activation of the CNG channels were measured in parallel by means of confocal patch-clamp fluorometry in excised patches, using fluorescent cyclic nucleotide derivatives. The method has been described previously.
(§6) To study ligand binding to the CNGB1b subunit selectively, the binding domain of the CNGA2 subunits was disabled by either the point mutation R538E (red crosses in the cartoons) or T539M (blue crosses in the cartoons)[13][20]. […] To this end, CNGB1b was coexpressed with CNGA2RE.
as §4

[5] = target: T5, CNGA2RE:B1b (Rattus norvegicus, UniProt A0A8I5ZN27+Q00195, R538E); assay: Ligand binding, confocal patch-clamp fluorometry; parameters: key to Ligand binding to CNGB1b: +: ligand binding to the respective modulatory subunits was either observed or not; −: ligand binding to the respective modulatory subunits was either observed or not; settings: 10 μM; construct CNGA2RE:B1b
T5 construct: expressed in transfected cells; host or cells: Xenopus laevis oocytes (cRNA injection), excised patches
T5 sequence (Q00195 whole entry R538E): as the sequence (Q00195 whole entry R538E) above
T5 sequence (A0A8I5ZN27 1-858 isoform A0A8I5ZN27-2, stated change not applied): as the sequence (A0A8I5ZN27 1-858 isoform A0A8I5ZN27-2 R657E) above, with E657R counted along it
Excerpt: as §5, §6, §4

[6] = target: T6, CNGA2:B1b channels (Rattus norvegicus, UniProt A0A8I5ZN27+Q00195); assay: Concentration-activation relationship, inside-out patch-clamp; format: biochemical
T6 construct: expressed in transfected cells; host or cells: Xenopus laevis oocytes (cRNA injection), excised inside-out patches
T6 sequence (Q00195 whole entry): as the sequence (Q00195 whole entry R538E) above, with E538R counted along it
T6 sequence (A0A8I5ZN27 1-858 isoform A0A8I5ZN27-2): as the sequence (A0A8I5ZN27 1-858 isoform A0A8I5ZN27-2 R657E) above, with E657R counted along it
Protocol: as §3, with “The initial resistance was 0.7–1.3 MΩ.” left out, “mV. Fits of equations to data points were performed with the 8.1G® software (OriginLab Corporation, Northampton, U.S.A.). Concentration-activation relationships were obtained by relating the actual current amplitude, I, to the maximum current amplitude elicited by a saturating concentration of ligand, Imax, and plotting this ratio as function of the ligand concentration, x. The concentration-activation data were fitted using the Hill equation where EC50 is the ligand concentration of half maximum effect and H the Hill coefficient.” for “mV.”

[7] = target: T7, CNGA2:A4 channels (Rattus norvegicus, UniProt Q00195+Q64359); assay: as above; format: biochemical
T7 construct: expressed in transfected cells; host or cells: Xenopus laevis oocytes (cRNA injection), excised inside-out patches
T7 sequence (Q00195 whole entry): as the sequence (Q00195 whole entry R538E) above, with E538R counted along it
T7 sequence (Q64359 whole entry): as the sequence (Q64359 whole entry R430E) above, with E430R counted along it
Protocol: as §3, with “The initial resistance was 0.7–1.3 MΩ.” left out, “mV. Fits of equations to data points were performed with the 8.1G® software (OriginLab Corporation, Northampton, U.S.A.). Concentration-activation relationships were obtained by relating the actual current amplitude, I, to the maximum current amplitude elicited by a saturating concentration of ligand, Imax, and plotting this ratio as function of the ligand concentration, x. The concentration-activation data were fitted using the Hill equation where EC50 is the ligand concentration of half maximum effect and H the Hill coefficient.” for “mV.”

Compound | activation [1] | activation [2] | activation (I/Imax) [3] [%] | binding to CNGB1b (in words) ([4]; 10 μM fcGMP, coexpressed with disabled CNGA2 (CNGA2TM)) | Ligand binding to CNGB1b ([4]; 10 μM, construct CNGA2TM:B1b) | Ligand binding to CNGB1b [5] | pEC50 ([6]; Equation 1) | H ([6]; Hill coefficient) | pEC50 ([7]; Equation 1) | H ([7]; Hill coefficient)
8-[DY-547]-AET-cGMP [fcGMP] | did not trigger activation | did not trigger activation | 1.7 ± 0.6 | does not bind | − | − |  |  |  | 
Nc1nc2c(ncn2[C@@H]2O[C@@H]3COP(=O)(O)O[C@H]3[C@H]2O)c(=O)[nH]1 [cGMP] |  |  |  |  |  |  | 5.72 | 2.0 | 5.89 | 1.7
